The record followed here is PubChem BioAssay AID1996.

Values after ≈ are worked out from the molar mass of the structure shown.

For orientation: solubility (kinetic) means solubility judged after dilution from a stock solution rather than from solid.

The conditions of the data set: buffer; pH 7.4; 200.0 µM.
Compound `O=C(CC(=O)Nc1ccccc1)Nc1ccccc1` gave a kinetic solubility of 8.4 µg/mL (≈ 33 µM). As for `COc1ccc(/C=C2\CCc3ccccc3C2=O)cc1CN1CCOCC1`, the figure is 23.9 µg/mL (≈ 65.8 µM); as for `O=C(c1cccc(S(=O)(=O)N2CCCc3ccccc32)c1)N1CCN(c2ccccc2)CC1`, 3.6 µg/mL (≈ 7.8 µM); as for `CC(NC(=O)NC(=O)c1ccc(F)cc1)C1CC1` (configuration not stated), 16.2 µg/mL (≈ 64.7 µM). `Cn1c(N)c(-c2ccccc2)c2ccc([N+](=O)[O-])cc2c1=O`: the kinetic solubility came out at 1.1 µg/mL (≈ 3.73 µM). `COc1ccc(N2C(=O)CCC2(C(N)=O)c2ccccc2)cc1` (configuration not stated) showed a solubility (kinetic) above 46.6 µg/mL. `COc1ccc2c(c1)CC/C2=N\OC(=O)c1ccccc1C`: the solubility (kinetic) was below 0.6 µg/mL. With `Br.N=C1CCCN1CC(=O)c1cccs1`, the solubility (kinetic) came out at 39 µg/mL. `CN(Cc1ccccc1)C(=O)C1CCN(S(C)(=O)=O)CC1` had a kinetic solubility above 46.6 µg/mL. With `COc1ccc(C(=O)C(C)OC(=O)CNC(=O)c2ccco2)cc1` (configuration not stated) the figure was above 49.7 µg/mL; with `C(#CC12CC3CC(CC(C3)C1)C2)CN1CCOCC1`, 17.8 µg/mL (≈ 68.6 µM); with `Cc1cc(C)c2c(=O)cc(C(=O)NCc3ccccc3)oc2c1`, below 0.7 µg/mL. As for `CCOC(=O)N1CCc2c(sc3[nH]c(=S)[nH]c(=S)c23)C1`, the kinetic solubility worked out at 43.1 µg/mL (≈ 132 µM). Turning to `CC1C(=O)Nc2ccccc2N1C(=O)c1ccc(Cl)cc1` (configuration not stated), the kinetic solubility came to 27.4 µg/mL (≈ 91.1 µM).

In turn, `O=C(CSc1nc(-c2ccc(F)cc2)cs1)NCC1CCCO1` (configuration not stated) returned a kinetic solubility above 52.9 µg/mL. With `CCN1CCN(C(=O)c2ccc(C(F)(F)F)cc2)CC1` the figure was 40.6 µg/mL (≈ 142 µM); with `O=C(Nc1ccc2oc(=O)ccc2c1)c1ccccc1[N+](=O)[O-]`, 5.7 µg/mL (≈ 18.4 µM). The compound `O=C(c1cc(F)ccc1F)C1CCCN(Cc2cccc(Cl)c2)C1` (configuration not stated) returned a solubility (kinetic) of 2.1 µg/mL (≈ 6 µM). `Cc1ccc(C(=O)O)cc1NC(=O)Nc1cccc2ccccc12` gave a kinetic solubility above 48.1 µg/mL.

In turn, `CCOc1ccccc1NC(=O)Cn1c(=O)oc2ccccc21` yielded a solubility (kinetic) of 25.2 µg/mL (≈ 80.7 µM). Compound `COCCCn1c(-c2cccs2)nc2nc3ccccc3nc21` had a kinetic solubility of 12.9 µg/mL (≈ 39.8 µM). With `CN(C)c1cccc(C(=O)NC2CCCc3ccccc32)c1` (configuration not stated) the figure was 11.6 µg/mL (≈ 39.4 µM); with `O=C(NCC1CCCO1)c1cc2c(s1)CCCC2` (configuration not stated), above 39.8 µg/mL; with `O=c1[nH]c2ccccc2nc1-c1ccc(Cl)cc1`, below 0.3 µg/mL.

With `CC(C)C(C)NC(=O)CN1C(=O)NC2(CCc3ccccc32)C1=O` (configuration not stated), the solubility (kinetic) was above 49.4 µg/mL. As for `c1ccc(CCNc2cnccn2)cc1`, the solubility (kinetic) was above 29.9 µg/mL. As for `Fc1ccc(-n2cc(-c3ccccc3)[n+]3c2SCC3)cc1.[Br-]`, the figure is above 56.6 µg/mL; as for `Cc1ccc(Cn2cccc(NS(C)(=O)=O)c2=O)cc1`, above 43.9 µg/mL; as for `O=C(c1ccccc1[N+](=O)[O-])N1CCC2(CC1)OCCO2`, above 43.8 µg/mL. As to `COc1ccc(NC(=O)CC(=O)Nc2ccc(OC)cc2)cc1`, the solubility (kinetic) was determined as 1.2 µg/mL (≈ 3.82 µM). Compound `CN1CCN(c2ccc(NC(=O)CN3CCOCC3)cc2F)CC1` returned a kinetic solubility above 50.5 µg/mL. Consider `COc1ccc(/C(C)=N/NC(=O)CNC(=O)c2cccnc2)cc1`, for which the kinetic solubility was above 49 µg/mL. `CC(C)Oc1ccc(C(=O)NCCNC(=O)c2ccco2)cc1` came in with a solubility (kinetic) above 47.5 µg/mL. As for `Cc1cccc(OCc2ccc(C(=O)Nc3cc(C)on3)o2)c1`, the figure is below 0.3 µg/mL. `CC(=O)C(C)n1cnc2scc(-c3ccc(C)cc3)c2c1=O` (configuration not stated) gave a solubility (kinetic) of 44.6 µg/mL (≈ 143 µM).

The compound `CCOc1ccccc1NC(=O)C(c1ccccc1)N1CCN(CC(=O)N2CCCC2)CC1` (configuration not stated) showed a kinetic solubility above 67.6 µg/mL. In turn, `CSc1ccccc1NC(=O)COC(=O)Cc1ccsc1` gave a solubility (kinetic) above 48.2 µg/mL.

As for `c1ccc(C2Nc3ccccc3C3OCCCC23)cc1` (configuration not stated), the solubility (kinetic) came out at 7.3 µg/mL (≈ 27.5 µM). `COc1ccc(OC)c2c(=O)cc(C(=O)O)[nH]c12` gave a solubility (kinetic) of 14.6 µg/mL (≈ 58.6 µM).

Regarding `CN(Cc1ccccc1)C(=O)COC(=O)COc1ccc(Cl)cc1`, the solubility (kinetic) was 2.9 µg/mL (≈ 8.34 µM). `CN(Cc1ccc2c(c1)OCCO2)C(=O)CN1C(=O)NC2(CCCCC2)C1=O`: the solubility (kinetic) was found to be 50.2 µg/mL (≈ 130 µM). As for `O=c1cc(-c2ccco2)nc(SCc2cccc(Cl)c2)[nH]1`, the solubility (kinetic) is 0.6 µg/mL (≈ 1.88 µM). Take `CCC(C)(CCNC(=O)Cc1ccccc1)c1ccccc1OC` (configuration not stated): the solubility (kinetic) was found to be 15 µg/mL (≈ 46.1 µM). On to `CCN=C1S/C(=C\c2cc(Br)c(O)c(OC)c2)C(=O)N1CC`, for which the kinetic solubility stood at 1.3 µg/mL (≈ 3.37 µM). The compound `Cc1ccc(SCC(=O)NC(=O)NCCC(C)C)c(C)c1` returned a solubility (kinetic) of 1.4 µg/mL (≈ 4.54 µM).

For the compound `Clc1cc(Cl)cc(NC2=NCCS2)c1`, the solubility (kinetic) amounted to 8.8 µg/mL (≈ 35.6 µM).

In turn, `O=C(c1ccco1)N1CCN(c2ccc([N+](=O)[O-])cc2F)CC1` yielded a solubility (kinetic) of 7 µg/mL (≈ 21.9 µM).

In turn, `Clc1cccc(Cl)c1-c1noc(-c2ccno2)n1` had a solubility (kinetic) of 28.6 µg/mL (≈ 101 µM). As for `CCC(Cc1ccccc1)NC(=O)CCc1ccccc1` (configuration not stated), the figure is above 42.2 µg/mL. In turn, `COC(=O)COc1ccc(-c2nccc(-c3ccccn3)n2)cc1` gave a solubility (kinetic) of 2.4 µg/mL (≈ 7.47 µM).

Regarding `Cc1cc(C)cc(NC(=O)c2ccc3c(c2)CCN3S(C)(=O)=O)c1`, the solubility (kinetic) came to 0.5 µg/mL (≈ 1.45 µM). For the compound `Cc1sc(NC(=O)/C=C/c2ccco2)c(C(=O)O)c1C`, the kinetic solubility stood at 40.9 µg/mL (≈ 140 µM).
